In one assay the test system is HT29. Nature of the assay: monolayer cytotoxicity test (modified propidium iodide assay), HT29. Format: cell-based. The note with it: for IC50 antitumoral activity: Colon. The source says: (§1) The compounds pursuant to the invention with the general formula I show antitumoral activity. The antitumoral activities of some compounds pursuant to the invention in the monolayer cytotoxicity test on selected cell lines are shown in Table 1. The low susceptibility of fibroblasts and endothelial cells with the use of the compounds pursuant to the invention is surprising.

For a further assay, the system named is GXF 251L. The experiment in a line: monolayer cytotoxicity test (modified propidium iodide assay), GXF 251L. Conditions: Stomach. Format: cell-based.
Excerpt: as §1

The subject of another assay is LXFL 529. Nature of the assay: monolayer cytotoxicity test (modified propidium iodide assay), LXFL 529. It counts as cell-based. Conditions: Lung.
Excerpt: as §1

Another assay has as its system 401 NL. Nature of the assay: monolayer cytotoxicity test (modified propidium iodide assay), 401 NL. Conditions: Breast. It counts as cell-based.
Excerpt: as §1

Another assay relates to 944 LL. The experiment in a line: monolayer cytotoxicity test (modified propidium iodide assay), 944 LL. Format: cell-based. Conditions: Kidney.
Excerpt: as §1

In the next assay the test system is 1138 L. Nature of the assay: monolayer cytotoxicity test (modified propidium iodide assay), 1138 L. Format: cell-based. The note with it: Uterus.
Excerpt: as §1

Assay [1] relates to 12 tumor cell lines (Table 3). The experiment in a line: cells. Conditions: read-out: mean IC50.
Assay [2] has as its system 12 tumor cell lines (Table 3). The note with it: mean over 12 cell lines of Table 3.
Where [3] appears, read: read-out: IC50 antitumoral activity.

≈ marks a conversion by molar mass, not a printed value.

In the case of `O/N=C(/C(=N/O)N1CC1)N1CC1` [Compound 1, 1,1′-[1,2-bis(hydroxyimino)-1,2-ethanediyl]bisaziridine], the half-inhibitory concentration (IC50) in the assay on HT29 (Homo sapiens, HT-29, Colon, read-out: IC50 antitumoral activity) was 0.486 µg/mL (≈ 2.86 µM); with GXF 251L (setting [3]) it was 0.781 µg/mL (≈ 4.59 µM); in the assay with LXFL 529 (Homo sapiens, read-out: IC50 antitumoral activity), 0.441 µg/mL (≈ 2.59 µM); in the assay with 401 NL (setting [3]), 0.04 µg/mL (≈ 0.235 µM); with 944 LL (setting [3]), 0.923 µg/mL (≈ 5.42 µM); in the assay with 1138 L (setting [3]), 0.173 µg/mL (≈ 1.02 µM).

On to `O=c1[nH]cc(F)c(=O)[nH]1` [Compound 5FU, 5-fluorouracil], for which the half-inhibitory concentration (IC50) in assay [1] turned out to be 0.054 µg/mL (≈ 0.415 µM).

Turning to `ON=C(c1cccc(C(=NO)N2CC2)n1)N1CC1` [Compound 6, 2,6-Bis(1-aziridino-1-hydroxyiminomethyl)pyridine], the IC50 antitumoral activity is 0.117 µg/mL (≈ 0.473 µM) in the assay on HT29; 0.020 µg/mL (≈ 0.0809 µM) with GXF 251L; 0.027 µg/mL (≈ 0.109 µM) in the assay with LXFL 529; 0.207 µg/mL (≈ 0.837 µM) in the assay on 401 NL; 0.115 µg/mL (≈ 0.465 µM) with 944 LL; 0.014 µg/mL (≈ 0.0566 µM) in the assay on 1138 L. Also, in assay [2], the “mean IC50” value came out at 0.030 µg/mL.

On to `ON=C(c1ccc(C(=NO)N2CC2)cc1)N1CC1` [Compound 7, 1,4-Bis(1-aziridino-1-hydroxyiminomethyl)benzene], for which the IC50 antitumoral activity in the assay on HT29 turned out to be 0.258 µg/mL (≈ 1.05 µM); with GXF 251L, 0.542 µg/mL (≈ 2.2 µM); in the assay with LXFL 529, 0.038 µg/mL (≈ 0.154 µM); with 401 NL it was 0.018 µg/mL (≈ 0.0731 µM); in the assay with 944 LL it was 0.348 µg/mL (≈ 1.41 µM); with 1138 L it was 0.038 µg/mL (≈ 0.154 µM).

As for `ON=C(c1cccc(C(=NO)N2CC2)c1)N1CC1` [Compound 9, 1,3-Bis(1-aziridino-1-hydroxyiminomethyl)benzene], the IC50 antitumoral activity in the assay with HT29 is 0.329 µg/mL (≈ 1.34 µM); in the assay on GXF 251L, 1.506 µg/mL (≈ 6.12 µM); in the assay on LXFL 529, 0.063 µg/mL (≈ 0.256 µM); with 401 NL it was 0.060 µg/mL (≈ 0.244 µM); in the assay with 944 LL it was 0.788 µg/mL (≈ 3.2 µM); in the assay with 1138 L, 0.066 µg/mL (≈ 0.268 µM).

In the case of `ON=C(c1cc(C(=NO)N2CC2)cc(C(=NO)N2CC2)c1)N1CC1` [Compound 10, 1,3,5-Tris(1-aziridino-1-hydroxyiminomethyl)benzene], the IC50 antitumoral activity in the assay with HT29 amounted to 0.670 µg/mL (≈ 2.03 µM); with GXF 251L, 3.964 µg/mL (≈ 12 µM); with LXFL 529 it was 0.100 µg/mL (≈ 0.303 µM); in the assay on 401 NL it was 0.043 µg/mL (≈ 0.13 µM); in the assay on 944 LL, 0.750 µg/mL (≈ 2.27 µM); with 1138 L, 0.111 µg/mL (≈ 0.336 µM).

Take `ON=C(c1ccc(C(=NO)N2CC2)nc1)N1CC1` [Compound 14, 2,5-Bis(1-aziridino-1-hydroxyiminomethyl)pyridine]: the IC50 antitumoral activity in the assay on HT29 worked out at 0.200 µg/mL (≈ 0.809 µM); in the assay with GXF 251L, 0.717 µg/mL (≈ 2.9 µM); with LXFL 529 it was 0.006 µg/mL (≈ 0.0243 µM); in the assay on 401 NL, 0.011 µg/mL (≈ 0.0445 µM); in the assay on 944 LL, 0.198 µg/mL (≈ 0.801 µM); in the assay with 1138 L it was 0.034 µg/mL (≈ 0.138 µM).

Consider `ON=C(c1ccc(C(=NO)N2CC2)o1)N1CC1` [Compound 16, 2,5-Bis(1-aziridino-1-hydroxyiminomethyl)furan], for which the IC50 antitumoral activity worked out at 0.481 µg/mL (≈ 2.04 µM) in the assay on HT29; 1.661 µg/mL (≈ 7.03 µM) in the assay on GXF 251L; 0.099 µg/mL (≈ 0.419 µM) with LXFL 529; 0.039 µg/mL (≈ 0.165 µM) with 401 NL; 1.359 µg/mL (≈ 5.75 µM) in the assay with 944 LL; 0.073 µg/mL (≈ 0.309 µM) in the assay with 1138 L.

(Values after patent US7078418B1, “1-aziridino-1-hydroxyiminomethyl-derivates, method for the production thereof and medicaments containing said compounds” (priority 1999, dated 2006).)
